Measurements published in patent publication US20030220361A1, “Nicotinamide derivatives and a tiotropium salt in combination for the treatment of diseases” (priority 2002, published 2003).

What follows are compounds tested on TNFα release from human peripheral blood mononuclear cells (assay: Inhibition of LPS-stimulated TNFα release from human peripheral blood mononuclear cells (TNFα screen)). Conditions: human PBMC, LPS stimulation, 18 hours incubation, TNFα in supernatant by ELISA.
Type: cell-based
Method: Venous blood is collected from healthy volunteers and the mononuclear cells purified by centrifugation through Histopaque (Ficoll) cushions. TNFα production from these cells is stimulated by addition of lipopolysaccharide. After 18 hours incubation in the presence of LPS, the cell supernatant is removed and the concentration of TNFa in the supernatant determined by ELISA. Addition of PDE4 inhibitors reduces the. amount of TNFQ produced. An IC50 is determined which is equal to the concentration of compound that gives 50% inhibition TNFα production as compared to the LPS stimulated control wells.

Compound	IC50 [nM]
O=C(N[C@H]1CC[C@@H](NC(=O)c2c(O)cccc2O)CC1)c1cc(F)cnc1Oc1ccc(F)c(F)c1 [Example 178]	0.15
O=C(NC1CCN(C(=O)c2ccc3ccccc3c2O)CC1)c1cc(F)cnc1Oc1ccc(F)cc1 [Example 81]	30
O=C(N[C@H]1CC[C@@H](NC(=O)c2cc(F)cnc2Oc2ccc(F)c(F)c2)CC1)c1cc(Cl)c(Cl)cc1O [Example 193]	9
COC(=O)c1cccc(C(=O)N[C@H]2CC[C@@H](NC(=O)c3cc(F)cnc3Oc3ccc(F)cc3)CC2)n1 [Example 123]	21
COc1ccc(C(=O)N[C@H]2CC[C@@H](NC(=O)c3cc(F)cnc3Oc3cccc(F)c3)CC2)c(O)c1 [Example 152]	0.2
Cc1ccc(C(=O)NC2CCC(NC(=O)c3cc(F)cnc3Oc3cc(F)cc(F)c3)CC2)c(O)c1 (stereo not drawn) [Example 217]	0.3
Cc1ccc(C(=O)N[C@H]2CC[C@@H](NC(=O)c3cc(F)cnc3Oc3cccc(C(F)(F)F)c3)CC2)c(O)c1 [Example 199]	0.7
O=C(Cc1cccc(O)c1)N[C@H]1CC[C@H](NC(=O)c2cc(F)cnc2Oc2ccc(F)cc2)CC1 [Example 25]	8.5
Cc1ccc(C(=O)N[C@H]2CC[C@@H](NC(=O)c3cc(F)cnc3Oc3ccc(F)c(Cl)c3)CC2)c(O)c1 [Example 200]	0.05
O=C(N[C@H]1CC[C@@H](NC(=O)c2cc(F)cnc2Oc2ccc(F)cc2)CC1)c1cccc(O)c1 [Example 48]	1.66
Cc1cccc(C(=O)NC2CCC(NC(=O)c3cc(F)cnc3Oc3ccc(F)c(F)c3)CC2)c1O (stereo not drawn) [Example 208]	0.09
O=C(N[C@H]1CC[C@H](NC(=O)c2c(O)cccc2F)CC1)c1cc(F)cnc1Oc1ccc(F)cc1 [Example 17]	8.5
O=C(N[C@H]1CC[C@@H](NC(=O)c2cc(F)cnc2Oc2ccc(F)c(F)c2)CC1)c1ccc(Cl)cc1O [Example 186]	0.2
O=C(N[C@H]1CC[C@@H](NC(=O)c2cc(F)cnc2Oc2ccc(F)c(F)c2)CC1)c1cc(CO)ccc1O [Example 183]	0.07
O=C(O)c1ccccc1C(=O)NC1CCC(NC(=O)c2cc(F)cnc2Oc2ccc(F)cc2)CC1 (stereo not drawn) [Example 76]	49
O=C(O)c1ccnc(C(=O)N[C@H]2CC[C@@H](NC(=O)c3cc(F)cnc3Oc3ccc(F)cc3)CC2)c1 [Example 135]	74
COc1ccc(C(=O)N[C@H]2CC[C@H](NC(=O)c3cc(F)cnc3Oc3ccc(F)cc3)CC2)c(O)c1 [Example 23]	7.8

Compound	IC50 [nM]
O=C(NCc1ccccc1O)NC1CCC(NC(=O)c2cc(F)cnc2Oc2ccc(F)cc2)CC1 (stereo not drawn) [Example 72, Syn-5-Fluoro-2-(4-fluoro-phenoxy)-N-{4-[3-(2-hydroxy-benzyl)-ureido]-cyclohexyl}-nicotinamide]	1.1
O=C(NC1CCN(C(=O)c2cc(F)ccc2O)CC1)c1cc(F)cnc1Oc1ccc(F)cc1 [Example 85]	28
O=C(N[C@H]1C[C@H]2CC[C@@H](C1)N2C(=O)Cc1ccc(O)cc1)c1cc(F)cnc1Oc1ccc(F)cc1 [Example 92, endo-5-Fluoro-2-(4-fluoro-phenoxy)-N-{8-[2-(4-hydroxy-phenyl)-acetyl]-8-aza-bicyclo[3.2.1]oct-3-yl}-nicotinamide]	185
COc1ccc(C(=O)N[C@H]2CC[C@@H](NC(=O)c3cc(F)cnc3Oc3ccc(F)c(F)c3)CC2)c(O)c1 [Example 155]	0.09
Cc1cccc(C(=O)NC2CCC(NC(=O)c3cc(F)cnc3Oc3ccc(Cl)c(F)c3)CC2)c1O (stereo not drawn) [Example 210]	13
Cc1ccc(O)c(C(=O)N[C@H]2CC[C@@H](NC(=O)c3cc(F)cnc3Oc3cccc(C4CC4)c3)CC2)c1 [Example 204]	0.3
O=C(N[C@H]1CC[C@H](NC(=O)c2cc(F)cnc2Oc2ccc(F)cc2)CC1)c1cc(O)ccc1O [Example 26]	5.4
O=C(NC1CCC(NC(=O)C(O)C2CCCCC2)CC1)c1cc(F)cnc1Oc1ccc(F)cc1 (stereo not drawn) [Example 106]	3.6
CC(=O)N(Cc1ccccc1O)C1CCC(NC(=O)c2cc(F)cnc2Oc2ccc(F)cc2)CC1 (stereo not drawn) [Example 44, Anti-N-{4-[Acetyl-(2-hydroxybenzyl)-amino]-cyclohexyl}-5-fluoro-2-(4-fluoro-phenoxy)-nicotinamide]	91
O=C(O)c1ccccc1C(=O)N1[C@@H]2CC[C@H]1C[C@H](NC(=O)c1cc(F)cnc1Oc1ccc(F)cc1)C2 [Example 100, exo-2-(3-{[5-Fluoro-2-(4-fluoro-phenoxy)-pyridine-3-carbonyl]-amino}8-aza-bicyclo[3.2.1]octane-8-carbonyl}-benzoic Acid]	56
O=C(N[C@H]1CC[C@@H](NC(=O)c2cc(F)cnc2Oc2ccc(F)c(F)c2)CC1)c1ccccc1O [Example 190]	0.06
COc1ccc(C(=O)N[C@H]2CC[C@@H](NC(=O)c3cc(F)cnc3Oc3ccc(F)cc3)CC2)cc1O [Example 54]	2.8
O=C(Cc1ccccc1O)N[C@H]1CC[C@@H](NC(=O)c2cc(F)cnc2Oc2ccc(F)cc2)CC1 [Example 51]	2.09
COc1ccc(O)c(C(=O)N[C@H]2CC[C@@H](NC(=O)c3cc(F)cnc3Oc3ccc(F)c(F)c3)CC2)c1 [Example 187]	0.006
Cc1ccc(O)c(C(=O)N[C@H]2CC[C@@H](NC(=O)c3cc(F)cnc3Oc3cccc(OC4CCC4)c3)CC2)c1 [Example 205]	0.55
O=C(N[C@H]1CC[C@H](NC(=O)c2cc(F)cnc2Oc2ccc3c(c2)OCO3)CC1)c1ccc(O)cc1 [Example 6]	23.5
COc1cc(O)c(C(=O)N[C@H]2CC[C@H](NC(=O)c3cc(F)cnc3Oc3ccc(F)cc3)CC2)c(OC)c1 [Example 30]	2.6

Continued by falling IC50, values first:

IC50 [nM]	Compound
217	O=C(CCc1cccc(O)c1)N[C@H]1CC[C@H](NC(=O)c2cc(F)cnc2Oc2ccc(F)cc2)CC1 [Example 28]
156	O=C(N[C@H]1CC[C@H](NC(=O)c2ccc3ccccc3c2O)CC1)c1cc(F)cnc1Oc1ccc(F)cc1 [Example 22]
114	O=C(NC1CCN(C(=O)Cc2ccc(O)cc2)CC1)c1cc(F)cnc1Oc1ccc(F)cc1 [Example 88]
39.5	O=C(N[C@H]1CC[C@H](NC(=O)c2ncccc2O)CC1)c1cc(F)cnc1Oc1ccc(F)cc1 [Example 27]
37	O=C(NC1CCN(C(=O)CCc2ccccc2O)CC1)c1cc(F)cnc1Oc1ccc(F)cc1 [Example 91]
30	CC(C)(CC(=O)N[C@H]1CC[C@@H](NC(=O)c2cc(F)cnc2Oc2ccc(F)cc2)CC1)C(=O)O [Example 129]
25.5	Cc1ccc(C(=O)N2CCC(NC(=O)c3cc(F)cnc3Oc3ccc(F)cc3)CC2)c(O)c1 [Example 79, 5-Fluoro-2-(4-fluoro-phenoxy)-N-[1-(2-hydroxy-4-methyl-benzoyl)-piperidin-4-yl]-nicotinamide]
16	COc1cc(C(=O)O)ccc1C(=O)N[C@H]1CC[C@@H](NC(=O)c2cc(F)cnc2Oc2ccc(F)cc2)CC1 [Example 137]
7.4	O=C(NC1CCN(C(=O)c2cccc(O)c2)CC1)c1cc(F)cnc1Oc1ccc(F)cc1 [Example 80]
7	Cc1ccc(C(=O)N[C@H]2CC[C@@H](NC(=O)c3cc(F)cnc3Oc3ccc(F)cc3C)CC2)c(O)c1 [Example 203]
4.9	O=C(NC1CCC(NC(=O)c2c(O)cccc2F)CC1)c1cc(F)cnc1Oc1ccc(F)c(F)c1 (stereo not drawn) [Example 41, Anti-5-Fluoro-2-(3,4-difluoro-phenoxy)-N-[4-(2-fluoro-6-hydroxy-benzoylmino)-cyclohexyl]-Nicotinamide]
4.6	COc1ccc(C(=O)N[C@H]2CC[C@@H](NC(=O)c3cc(F)cnc3Oc3ccc4c(c3)CCC4)CC2)c(O)c1 [Example 159]
4.3	O=C(N[C@H]1CC[C@@H](C(=O)NCc2ccccc2O)CC1)c1cccnc1Oc1ccc(F)cc1 [Example 172, Syn-2-(4-Fluoro-phenoxy)-N-[4-(2-hydroxy-benzyl-carba-moyl)-cyclohexyl]-nicotinamide]
3.5	O=C(Cc1ccc(O)c(Cl)c1)N[C@H]1CC[C@@H](NC(=O)c2cc(F)cnc2Oc2ccc(F)cc2)CC1 [Example 58]
2	CCc1cccc(Oc2ncc(F)cc2C(=O)N[C@H]2CC[C@@H](NC(=O)c3ccc(OC)cc3O)CC2)c1 [Example 157]
1.9	O=C(Cc1ccc(O)c(F)c1)N[C@H]1CC[C@@H](NC(=O)c2cc(F)cnc2Oc2ccc(F)cc2)CC1 [Example 56]
1.8	COc1cccc(Oc2ncc(F)cc2C(=O)N[C@H]2CC[C@@H](NC(=O)c3ccc(OC)cc3O)CC2)c1 [Example 197]
0.4	Cc1ccc(C(=O)N[C@H]2CC[C@@H](NC(=O)c3cc(F)cnc3Oc3cccc(OC(F)(F)F)c3)CC2)c(O)c1 [Example 195, Syn-5-Fluoro-N-[4-(2-hydroxy-4-methyl-benzoylamino)-cyclohexyl]-2-(3-trifluoromethoxy-phenoxy)-nicotinamide]
0.3	Cc1ccc(C(=O)N[C@H]2CC[C@@H](NC(=O)c3cc(F)cnc3Oc3cccc(Br)c3)CC2)c(O)c1 [Example 201]
0.28	Cc1ccc(C(=O)NC2CCC(NC(=O)c3cc(F)cnc3Oc3ccc(F)cc3)CC2)c(O)c1 (stereo not drawn) [Example 47, Syn-5-Fluoro-2-(4-fluoro-phenoxy)-N-[4-(2-hydroxy-4-methyl-benzoylamino)-cyclohexyl]-nicotinamide]
0.2	Cc1ccc(O)c(C(=O)NC2CCC(NC(=O)c3cc(F)cnc3Oc3cccc(F)c3)CC2)c1 (stereo not drawn) [Example 213]
0.14	COc1ccc(C(=O)N[C@H]2CC[C@@H](NC(=O)c3cc(F)cnc3Oc3ccc(F)c(Cl)c3)CC2)c(O)c1 [Example 156]
0.014	Cc1ccc(O)c(C(=O)N[C@H]2CC[C@@H](NC(=O)c3cc(F)cnc3Oc3ccc(F)c(F)c3)CC2)c1 [Example 174, Syn-2-(3.4-Difluoro-phenoxy)-5-fluoro-N-[4-(2-hydroxy-5-methyl-benzoylamino)-cyclohexyl]-nicotinamide]
